Results as given in publication PMC9134315, “Systemic Administration of a Brain Permeable Cdk5 Inhibitor Alters Neurobehavior” (Frontiers in Pharmacology, 2022).
Read-outs that look alike come from different tables or passages of the source.

Experiment: Pharmacokinetic profile in mice after I.V. injection (LC-MS/MS of plasma, brain, liver, kidney)
Assay type: in vivo, mouse
Settings: for AUC(0-t): read-out: AUC24h; for concentration at 24 h: read-out: Clast; for k el: read-out: Ke (converted)
Procedure: The wild-type group housed male C57BL/6 mice 10–12 weeks of age were used for all in vivo, ex vivo, and behavioral studies. This age range was selected to be consistent with previous studies of conditional Cdk5 knockout mice ([Plattner et al., 2015]). 25–106 was administered in a 20-fold dose range intravenously (I.V.) at 10, 50, 100, and 200 mg/kg for pharmacokinetic studies. This delivery mode was used as I.V. injections to avoid first-pass drug metabolism observed using other injection methods ([Pond and Tozer, 1984]). […] All animal experiments were performed under approved protocols by the University of Alabama at Birmingham (UAB) Institutional Animal Care and Use Committees and in accordance with the guidelines of the Animal Welfare Act and the Guide for the Care and Use of Laboratory Animals.
A quantitative determination of 25–106 in mouse plasma and tissue homogenate was accomplished by the use of protein precipitation and high-performance liquid chromatography with tandem mass spectrometry detection (LC-MS/MS). 5-(N,N-hexamethylene) amiloride (HMA) was used as the internal standard (IS). 25–106 and IS were typically extracted from 50 µL of mouse plasma or tissue homogenate using protein precipitation with methanol. The extracts were analyzed by reverse-phase chromatography using an ACE Excel 3 C18-PFP column under isocratic conditions at a flow rate of 500 μL/min. The column temperature was maintained at 40°C. The mobile phase A consisted of 0.1% formic acid in water, and the mobile phase B was acetonitrile. A triple–quadrupole mass spectrometer (AB Sciex 5,000) equipped with TurboV IonSpray operating in positive-ion mode was used. Column effluents were analyzed by multiple reaction monitoring (MRM). The precursor/product transitions are 346.1 to 137.1 m/z for 25–106 and 312.37 to 129.5 m/z for IS. The calibration curve was fit using weighted (1/x^2) linear regression analysis of the 25–106/IS peak area ratio vs. the 25–106 concentration from 1.0–80.0 ng/ml (ng/g for tissue) for the low curve and 80.0–10,000 ng/ml (ng/g for tissue) for the high curve. The concentrations of incurred and quality control samples were calculated with the same regression analysis, and the results were reported in ng/mL (plasma) or ng/g (tissue) of 25–106.
To assess the pharmacokinetic and pharmacodynamic parameters of 25–106 in vivo, we utilized the LC-MS/MS detection method established above (see Figure 5). The mice were administered IV injections of 25–106 doses of 10, 50, 100, or 200 mg/kg. The animals were euthanized, and organs were harvested at 1, 2, 6, and 24 h post injection. Within the same experiment, tissues were used for biochemical analysis of 25–106 effects on Cdk5 activity (see Figures 3A, B).

[1] = male, C57BL/6, mouse, iv, brain, 10 mg/kg I.V.
[2] = male, C57BL/6, mouse, iv, brain, 50 mg/kg I.V.
[3] = male, C57BL/6, mouse, iv, brain, 100 mg/kg I.V.
[4] = male, C57BL/6, mouse, iv, brain, 200 mg/kg I.V.
[5] = male, C57BL/6, mouse, iv, kidney, 50 mg/kg I.V.
[6] = male, C57BL/6, mouse, iv, kidney, 100 mg/kg I.V.
[7] = male, C57BL/6, mouse, iv, kidney, 200 mg/kg I.V.
[8] = male, C57BL/6, mouse, iv, plasma, 10 mg/kg I.V.
[9] = male, C57BL/6, mouse, iv, plasma, 50 mg/kg I.V.
[10] = male, C57BL/6, mouse, iv, plasma, 100 mg/kg I.V.
[11] = male, C57BL/6, mouse, iv, plasma, 200 mg/kg I.V.

With `COc1cc(CC(=O)Nc2cc(C3CCC3)[nH]n2)cc(OC)c1OC` [25–106, N-(5-cyclobutyl-1H-pyrazol-3-yl)-2-(3,4,5-trimethoxyphenyl)acetamide] the “detectability in the brain and plasma” value (24 h after injection, I.V.) was “remaining detectable”, the demethylated metabolites detected (LC-MS/MS, mice) was “No demethylated metabolite structures” and the V (brain, 10 mg/kg I.V.) was 77.39 ± 25.63 L. The V (brain, 50 mg/kg I.V.) was 151.24 ± 58.36 L, the CL (brain, 50 mg/kg I.V., 50 mg/kg) was 16.57 ± 4.19 L/h and the V (brain, 100 mg/kg I.V.) was 126.99 ± 46.68 L. The CL (brain, 100 mg/kg I.V., 100 mg/kg) was 17.75 ± 6.77 L/h, the V (brain, 200 mg/kg I.V.) was 76.07 ± 73.66 L and the Clast (kidney, 10 mg/kg I.V.) was 163 ± 41.67 ng/mL. It also gave a Clast (kidney, 50 mg/kg I.V.) of 109.33 ± 42.90 ng/mL, a V (kidney, 50 mg/kg I.V.) of 78.88 ± 16.88 L and a Clast (kidney, 100 mg/kg I.V.) of 119.88 ± 51.83 ng/mL. For the same compound, the V (kidney, 100 mg/kg I.V.) was 172.86 ± 89.05 L, the Clast (kidney, 200 mg/kg I.V.) was 146.45 ± 87.11 ng/mL and the V (kidney, 200 mg/kg I.V.) was 163.98 ± 55.79 L. For the same compound, the Clast (liver, 10 mg/kg I.V.) was 85.18 ± 32.60 ng/mL, the Clast (liver, 50 mg/kg I.V.) was 252.73 ± 200.06 ng/mL and the Clast (liver, 100 mg/kg I.V.) was 150.9 ± 103.92 ng/mL. For the same compound, the Clast (liver, 200 mg/kg I.V.) was 310.9 ± 247.48 ng/mL, the clearance (male, C57BL/6, mouse, brain, iv, 10 mg/kg, 10 mg/kg I.V.) was 66.3 mL/min and the Cmax (male, C57BL/6, mouse, brain, iv, 10 mg/kg, brain, 10 mg/kg I.V., read-out: Cmax) was 101 ± 23.6 ng/g. For the same compound, the clearance (male, C57BL/6, mouse, brain, iv, 50 mg/kg, 50 mg/kg I.V.) was 275 mL/min, the Cmax (male, C57BL/6, mouse, brain, iv, 50 mg/kg, brain, 50 mg/kg I.V., read-out: Cmax) was 118 ± 76.7 ng/g and the clearance (male, C57BL/6, mouse, brain, iv, 100 mg/kg, 100 mg/kg I.V.) was 295 mL/min. For the same compound, the Cmax (male, C57BL/6, mouse, brain, iv, 100 mg/kg, brain, 100 mg/kg I.V., read-out: Cmax) was 377 ± 289 ng/g, the clearance (male, C57BL/6, mouse, brain, iv, 200 mg/kg, 200 mg/kg I.V.) was 188 mL/min and the Cmax (male, C57BL/6, mouse, brain, iv, 200 mg/kg, brain, 200 mg/kg I.V., read-out: Cmax) was 669 ± 316 ng/g. The half-life [1] was 17.2 ± 10.4 h, the AUC(0-t) [1] was 80 ± 20 ng·h/mL and the concentration at 24 h [1] was 2.27 ± 1.44 ng/mL. The k el [1] was 1.67e-05 s⁻¹, the half-life [2] was 6.23 ± 1.12 h and the AUC(0-t) [2] was 90 ± 30 ng·h/mL. It also gave a concentration at 24 h [2] of 2.73 ± 1.75 ng/mL, a k el [2] of 3.06e-05 s⁻¹ and a half-life [3] of 5.03 ± 0.69 h. The AUC(0-t) [3] was 180 ± 70 ng·h/mL, the concentration at 24 h [3] was 2.88 ± 1.16 ng/mL and the k el [3] was 3.89e-05 s⁻¹. For the same compound, the half-life [4] was 4.39 ± 1.19 h, the AUC(0-t) [4] was 960 ± 860 ng·h/mL and the concentration at 24 h [4] was 14 ± 14.5 ng/mL. For the same compound, the k el [4] was 4.72e-05 s⁻¹, the AUC(0-t) (male, C57BL/6, mouse, iv, kidney, 10 mg/kg I.V.) was 6300 ± 1690 ng·h/mL and the half-life [5] was 10.2 ± 2.99 h. The AUC(0-t) [5] was 7640 ± 1280 ng·h/mL, the k el [5] was 1.94e-05 s⁻¹ and the half-life [6] was 13 ± 4.56 h. For the same compound, the AUC(0-t) [6] was 9420 ± 3060 ng·h/mL, the k el [6] was 1.67e-05 s⁻¹ and the half-life [7] was 9.65 ± 5.34 h. For the same compound, the AUC(0-t) [7] was 14400 ± 4630 ng·h/mL, the k el [7] was 2.5e-05 s⁻¹ and the AUC(0-t) (male, C57BL/6, mouse, iv, liver, 10 mg/kg I.V.) was 3080 ± 1010 ng·h/mL. It also gave an AUC(0-t) (male, C57BL/6, mouse, iv, liver, 50 mg/kg I.V.) of 2760 ± 980 ng·h/mL, an AUC(0-t) (male, C57BL/6, mouse, iv, liver, 100 mg/kg I.V.) of 3320 ± 1280 ng·h/mL and an AUC(0-t) (male, C57BL/6, mouse, iv, liver, 200 mg/kg I.V.) of 5440 ± 1950 ng·h/mL. For the same compound, the half-life [8] was 6.5 ± 2.36 h, the AUC(0-t) [8] was 5710 ± 2260 ng·h/mL and the concentration at 24 h [8] was 16.3 ± 7 ng/mL. For the same compound, the k el [8] was 3.06e-05 s⁻¹, the half-life [9] was 7.48 ± 0.41 h and the AUC(0-t) [9] was 6930 ± 930 ng·h/mL. The concentration at 24 h [9] was 69.7 ± 16.2 ng/mL, the k el [9] was 2.5e-05 s⁻¹ and the half-life [10] was 8.37 ± 1.77 h. The AUC(0-t) [10] was 8380 ± 780 ng·h/mL, the concentration at 24 h [10] was 79.2 ± 16 ng/mL and the k el [10] was 2.5e-05 s⁻¹. The half-life [11] was 11 ± 6.38 h, the AUC(0-t) [11] was 12000 ± 1740 ng·h/mL and the concentration at 24 h [11] was 149 ± 94.1 ng/mL. For the same compound, the k el [11] was 2.22e-05 s⁻¹, the Cmax (male, C57BL/6, mouse, kidney, iv, 10 mg/kg, kidney, 10 mg/kg I.V., read-out: Cmax) was 2950 ng/g and the clearance (male, C57BL/6, mouse, kidney, iv, 50 mg/kg, 50 mg/kg I.V.) was 92.5 mL/min. For the same compound, the Cmax (male, C57BL/6, mouse, kidney, iv, 50 mg/kg, kidney, 50 mg/kg I.V., read-out: Cmax) was 1190 ng/g, the clearance (male, C57BL/6, mouse, kidney, iv, 100 mg/kg, 100 mg/kg I.V.) was 154 mL/min and the Cmax (male, C57BL/6, mouse, kidney, iv, 100 mg/kg, kidney, 100 mg/kg I.V., read-out: Cmax) was 2580 ng/g. The clearance (male, C57BL/6, mouse, kidney, iv, 200 mg/kg, 200 mg/kg I.V.) was 227 mL/min, the Cmax (male, C57BL/6, mouse, kidney, iv, 200 mg/kg, kidney, 200 mg/kg I.V., read-out: Cmax) was 4660 ng/g and the Cmax (male, C57BL/6, mouse, liver, iv, 10 mg/kg, liver, 10 mg/kg I.V., read-out: Cmax) was 1760 ± 526 ng/g. For the same compound, the Cmax (male, C57BL/6, mouse, liver, iv, 50 mg/kg, liver, 50 mg/kg I.V., read-out: Cmax) was 513 ± 22 ng/g, the Cmax (male, C57BL/6, mouse, liver, iv, 100 mg/kg, liver, 100 mg/kg I.V., read-out: Cmax) was 868 ± 378 ng/g and the Cmax (male, C57BL/6, mouse, liver, iv, 200 mg/kg, liver, 200 mg/kg I.V., read-out: Cmax) was 2810 ng/g. The clearance (male, C57BL/6, mouse, plasma, iv, 10 mg/kg, 10 mg/kg I.V.) was 1 mL/min, the Cmax (male, C57BL/6, mouse, plasma, iv, 10 mg/kg, plasma, 10 mg/kg I.V., read-out: Cmax) was 2570 ng/mL and the clearance (male, C57BL/6, mouse, plasma, iv, 50 mg/kg, 50 mg/kg I.V.) was 3.33 mL/min. For the same compound, the Cmax (male, C57BL/6, mouse, plasma, iv, 50 mg/kg, plasma, 50 mg/kg I.V., read-out: Cmax) was 1380 ng/mL, the clearance (male, C57BL/6, mouse, plasma, iv, 100 mg/kg, 100 mg/kg I.V.) was 5.33 mL/min and the Cmax (male, C57BL/6, mouse, plasma, iv, 100 mg/kg, plasma, 100 mg/kg I.V., read-out: Cmax) was 2580 ng/mL. For the same compound, the clearance (male, C57BL/6, mouse, plasma, iv, 200 mg/kg, 200 mg/kg I.V.) was 7.17 mL/min, the Cmax (male, C57BL/6, mouse, plasma, iv, 200 mg/kg, plasma, 200 mg/kg I.V., read-out: Cmax) was 2320 ng/mL and the V (plasma, 10 mg/kg I.V.) was 0.49 ± 0.08 L. The V (plasma, 50 mg/kg I.V.) was 2.14 ± 0.34 L, the V (plasma, 100 mg/kg I.V.) was 3.85 ± 0.55 L and the Cmax (plasma, 100 mg/kg I.V., 100 mg/kg) was 2,577.50 ± 1,004.73 Ng/ml. For the same compound, the V (plasma, 200 mg/kg I.V.) was 6.12 ± 2.08 L and the Cmax (plasma, 200 mg/kg I.V., 200 mg/kg) was 2,322.50 ± 972.71 Ng/ml.
